Measurements: patent publication US20230322753A1, “HETEROARYL DERIVATIVE, METHOD FOR PREPARATION THEREOF, AND PHARMACEUTICAL COMPOSITION COMPRISING SAME AS ACTIVE INGREDIENT” (VORONOI INC., priority 2020, published 2023)

Columns and labels:
Assay type in all cases: cell-based
Settings in all cases: Mus musculus, BaF3, 72 hours, CellTiter-Glo
[1] = system: Ba/F3 cells expressing EGFR Exon20 ins NPH; experiment: Ba/F3 proliferation suppression activity, cells expressing EGFR Exon20 ins NPH
Protocol: A following experiment was carried out to evaluate the suppression activity of the compounds according to the present invention against the proliferation of Ba/F3 which expresses EGFR mutations.
(§1) For the Ba/F3 cells, a RPMI-1640 medium containing 10% FBS and 5 ng/ml IL-3 (R&D Systems) was used. The transduced Ba/F3 cells were cultured in a medium, which is same as the above medium, but 1 ug/ml puromycin (Invitrogen) was additionally added to.
(§2) 24 hours before the treatment of the cells with the compounds, 3000 to 5000 cells were distributed into each well of a white clear bottom 96 well plate (Corning). The compounds were diluted in a dimethyl sulfoxide (e.g. dilution ratio of 3:1 and total 12 concentrations) and then injected by 0.5 ul respectively, such that a final concentration amounted to 0.3 nM to 50 uM. 72 hours after the treatment with the compounds, the measurement of live cells was made in such way that these cells were stored for 10 minutes at a room temperature using a CellTiter-Glo luminescent cell-viability reagent (Promega) and then their luminescence intensities were measured using a reader (i.e. Synergy Neo, Biotek). Each test was repeated three times.
(§3) resulting values were calculated as a cell growth ratio (%) compared to a control. Then, the graphs were drawn and the […] values were calculated by using a program, GraphPad Prism version 5.0.

[2] = system: Ba/F3 cells expressing HER2 YVMA Exon 20ins; experiment: Ba/F3 proliferation suppression activity, cells expressing HER2 YVMA Exon 20ins
Protocol: as §1, §2, §3

[3] = system: Ba/F3 cells expressing HER2 WT; experiment: Ba/F3 proliferation suppression activity, cells expressing ErbB2 (HER2) wild type
Protocol: as §1, §2, §3

Row | GI50 [1] [nM] | GI50 [2] [nM] | GI50 [3] [nM] | Compound
1 | < 50 | < 50 | – | C=CC(=O)Nc1cc(Nc2cc(N3OCC[C@@H]3c3cccc(C(F)(F)F)c3F)ncn2)c(OC)cc1N1CCN(C)CC1 [Compound 60]
2 | < 50 | < 50 | – | C=CC(=O)Nc1cc(Nc2cc(N3OCC[C@@H]3c3cccc(C(F)(F)F)c3F)ncn2)c(OC)cc1N(C)CCN(C)C [Compound 61]
3 | 50 to 500 | – | – | C=CC(=O)Nc1cc(Nc2cc(N3OCC[C@@H]3c3cc(F)cc(F)c3)ccn2)c(OC)cc1N1CCC(N2CCN(C3CC3)CC2)CC1 [Compound 98]
4 | 50 to 500 | – | – | C=CC(=O)Nc1cc(Nc2cc(N3OCC[C@@H]3c3cccc(C(F)(F)F)c3F)ncn2)c(OC)cc1N1CCC(N2CCN(C(C)=O)CC2)CC1 [Compound 91]
5 | < 50 | – | – | C=CC(=O)Nc1cc(Nc2cc(N3OCC[C@@H]3c3cccc(C(F)(F)F)c3F)ncn2)c(OC)cc1N1CCC(N(C)C)CC1 [Compound 82]
6 | < 50 | – | – | C=CC(=O)Nc1cc(Nc2cc(N3OCC[C@@H]3c3cccc(C(F)(F)F)c3F)ncn2)c(OC)cc1N1CCN(CCC)CC1 [Compound 93]
7 | < 50 | – | – | C=CC(=O)Nc1cc(Nc2cc(N3OCC[C@@H]3c3cccc(C(F)(F)F)c3F)ncn2)c(OC)cc1N1CCC(N2CCOCC2)CC1 [Compound 66]
8 | 50 to 500 | – | – | C=CC(=O)Nc1cc(Nc2cc(N3OCC[C@@H]3c3cccc(C(F)(F)F)c3F)ncn2)c(OC)cc1N1CCO[C@H](C)C1 [Compound 79]
9 | 50 to 500 | – | – | C=CC(=O)Nc1cc(Nc2cc(N3OCC[C@@H]3c3cccc(C(F)(F)F)c3F)ncn2)c(OC)cc1N1CCO[C@@H](C)C1 [Compound 75]
10 | 50 to 500 | – | – | C=CC(=O)Nc1cc(Nc2cc(N3OCC[C@@H]3c3cccc(C(F)(F)F)c3F)ncn2)c(OC)cc1N1C[C@H]2C[C@@H]1CO2 [Compound 86]
11 | 50 to 500 | – | – | C=CC(=O)Nc1cc(Nc2cc(N3OCCC3c3cccc4c3cnn4C)ncn2)c(OC)cc1N1CCN(C)CC1 (centres unmarked) [Compound 125]
12 | < 50 | – | – | C=CC(=O)Nc1cc(Nc2ncc(C(=O)OC(C)C)c(-c3cn(C)c4ccccc34)n2)c(OC)cc1N(C)CCN(C)C [TAK788, reference compound]
13 | < 50 | – | – | C=CC(=O)Nc1cc(Nc2cc(N3OCC[C@@H]3c3cccc(C(F)(F)F)c3F)ncn2)c(OC)cc1N1CC[C@@H](CN(C)C)C1 [Compound 95]
14 | < 50 | – | – | C=CC(=O)Nc1cc(Nc2cc(N3OCC[C@@H]3c3cccc(C(F)(F)F)c3F)ncn2)c(OC)cc1N1CCC(N2C[C@@H](C)O[C@@H](C)C2)CC1 [Compound 73]
15 | 50 to 500 | – | – | C=CC(=O)Nc1cc(Nc2cc(N3OCC[C@@H]3c3cccc(C(F)(F)F)c3F)ncn2)c(OC)cc1N1CCC(N2CCN(C3CC3)C(C)(C)C2)CC1 [Compound 83]
16 | 50 to 500 | – | – | C=CC(=O)Nc1cc(Nc2cc(N3OCC[C@@H]3c3cccc(C(F)(F)F)c3F)ncn2)c(OC)cc1N1CCC(N2CCN(C3CC3)[C@H](C)C2)CC1 [Compound 68]
17 | < 50 | < 50 | – | C=CC(=O)Nc1cc(Nc2cc(N3OCC[C@@H]3c3ccc(F)c(C(F)(F)F)c3)ncn2)c(OC)cc1N1CCC(N2CCO[C@@H](C)C2)CC1 [Compound 58]
18 | 50 to 500 | – | – | C=CC(=O)Nc1cc(Nc2cc(N3OCC[C@@H]3c3ccc(F)c(C(F)(F)F)c3)ncn2)c(OC)cc1N1CCO[C@H](C)C1 [Compound 57]
19 | < 50 | – | – | C=CC(=O)Nc1cc(Nc2cc(N3OCC[C@@H]3c3cccc(C(F)(F)F)c3F)ncn2)c(OC)cc1N1CCN(C2COC2)CC1 [Compound 69]
20 | < 50 | < 50 | – | C=CC(=O)Nc1cc(Nc2cc(N3OCC[C@@H]3c3cccc(C(F)(F)F)c3F)ncn2)c(OC)cc1N1CCC(N2CCN(C3CC3)CC2)CC1 [Compound 62]

Further lines, the compound ahead of its results:

Row | Compound | GI50 [1] [nM] | GI50 [2] [nM] | GI50 [3] [nM]
21 | C=CC(=O)Nc1cc(Nc2cc(N3OCC[C@@H]3c3ccc(F)c(C(F)(F)F)c3)ncn2)c(OC)cc1N1CCN(C)CC1 [Compound 37] | < 50 | < 50 | –
22 | C=CC(=O)Nc1cc(Nc2cc(N3OCC[C@@H]3c3ccc(F)c(C(F)(F)F)c3)ncn2)c(OC)cc1N1CCC(N2CCN(C3CC3)[C@H](C)C2)CC1 [Compound 53] | < 50 | < 50 | –
23 | C=CC(=O)Nc1cc(Nc2cc(N3OCCC3c3cc(Cl)cc(C(F)(F)F)c3)ncn2)c(OC)cc1N1CCC(N2CCN(C3CC3)CC2)CC1 (centres unmarked) [Compound 51] | 50 to 500 | – | –
24 | C=CC(=O)Nc1cc(Nc2cc(N3OCC[C@@H]3c3cccc(C(F)(F)F)c3)ncn2)c(OC)cc1N1CCN(C)[C@@H](C)C1 [Compound 7] | < 50 | – | –
25 | C=CC(=O)Nc1cc(Nc2cc(N3OCC[C@@H]3c3ccc(F)c(C(F)(F)F)c3)ncn2)c(OC)cc1N1CCN(CC)CC1 [Compound 38] | < 50 | – | –
26 | C=CC(=O)Nc1cc(Nc2cc(N3OCC[C@@H]3c3cc(F)cc(C(F)(F)F)c3)ncn2)c(OC)cc1N1CCN(C2CC2)[C@H](C)C1 [Compound 5] | 50 to 500 | – | –
27 | C=CC(=O)Nc1cc(Nc2cc(N3OCC[C@@H]3c3cc(F)cc(C(F)(F)F)c3)ncn2)c(OC)cc1N(C)CCN(C)C [Compound 17] | < 50 | – | –
28 | C=CC(=O)Nc1cc(Nc2cc(N3OCC[C@@H]3c3ccc(F)c(C(F)(F)F)c3)ncn2)c(OC)cc1N1CCCN(C)CC1 [Compound 40] | < 50 | – | –
29 | C=CC(=O)Nc1cc(Nc2cc(N3OCC[C@@H]3c3ccc(F)c(C(F)(F)F)c3)ncn2)c(OC)cc1N1CC[C@@H](N(C)C)C1 [Compound 43] | < 50 | – | –
30 | C=CC(=O)Nc1cc(Nc2cc(N3OCC[C@@H]3c3ccc(F)c(C(F)(F)F)c3)ncn2)c(OC)cc1N(C)CCN(C)C [Compound 36] | < 50 | – | –
31 | C=CC(=O)Nc1cc(Nc2cc(N3OCC[C@@H]3c3cccc(C(F)(F)F)c3)ncn2)c(OC)cc1N1CCN(C2CC2)[C@@H](C)C1 [Compound 10] | 50 to 500 | – | –
32 | C=CC(=O)Nc1cc(Nc2cc(N3OCC[C@@H]3c3cccc(C(F)(F)F)c3)ncn2)c(OC)cc1N1CCCN(C2CC2)CC1 [Compound 29] | 50 to 500 | – | –
33 | C=CC(=O)Nc1cc(Nc2cc(N3OCC[C@@H]3c3ccc(F)c(C(F)(F)F)c3)ncn2)c(OC)cc1N1C[C@@H]2C[C@H]1CO2 [Compound 54] | 50 to 500 | – | –
34 | C=CC(=O)Nc1cc(Nc2cc(N3OCC[C@@H]3c3cccc(C(F)(F)F)c3)ncn2)c(OC)cc1N1CCCN(C)CC1 [Compound 26] | < 50 | – | –
35 | C=CC(=O)Nc1cc(Nc2cc(N3OCC[C@@H]3c3cccc(C(F)(F)F)c3)ncn2)c(OC)cc1N1C[C@H]2C[C@@H]1CO2 [Compound 28] | 50 to 500 | – | –
36 | C=CC(=O)Nc1cc(Nc2cc(N3OCC[C@@H]3c3cc(F)cc(C(F)(F)F)c3)ncn2)c(OC)cc1N1CCC(N2CCCC2)CC1 [Compound 18] | < 50 | – | –

Row | Compound | GI50 [1] [nM] | GI50 [2] [nM] | GI50 [3] [nM]
37 | C=CC(=O)Nc1cc(Nc2cc(N3OCC[C@@H]3c3ccc(F)c(C(F)(F)F)c3)ncn2)c(OC)cc1N1CCN(CCC)CC1 [Compound 55] | < 50 | < 50 | < 50
38 | C=CC(=O)Nc1cc(Nc2cc(N3OCC[C@@H]3c3cccc(C(F)(F)F)c3)ncn2)c(OC)cc1N1C[C@@H]2C[C@H]1CO2 [Compound 30] | 50 to 500 | – | –
39 | C=CC(=O)Nc1cc(Nc2cc(N3OCC[C@@H]3c3ccc(F)c(C(F)(F)F)c3)ncn2)c(OC)cc1N1CCN(C(C)=O)CC1 [Compound 46] | < 50 | – | –
40 | C=CC(=O)Nc1cc(Nc2cc(N3OCC[C@@H]3c3cc(F)cc(C(F)(F)F)c3)ncn2)c(OC)cc1N1CCN(C)CC1 [Compound 3] | 50 to 500 | – | –
41 | C=CC(=O)Nc1cc(Nc2cc(N3OCC[C@@H]3c3ccc(F)c(C(F)(F)F)c3)ncn2)c(OC)cc1N1CCC(N2CCN(C3CC3)[C@@H](C)C2)CC1 [Compound 52] | < 50 | < 50 | < 50
42 | C=CC(=O)Nc1cc(Nc2cc(N3OCC[C@@H]3c3cccc(C(F)(F)F)c3)ncn2)c(OC)cc1N1CCC(N2CCC2)CC1 [Compound 21] | < 50 | – | –
43 | C=CC(=O)Nc1cc(Nc2cc(N3OCC[C@@H]3c3cccc(C(F)(F)F)c3)ncn2)c(OC)cc1N1CCC(N2CCCC2)CC1 [Compound 22] | < 50 | – | –
44 | C=CC(=O)Nc1cc(Nc2cc(N3OCC[C@@H]3c3cc(F)cc(C(F)(F)F)c3)ncn2)c(OC)cc1N1CCN(C2CC2)CC1 [Compound 2] | 50 to 500 | – | –
45 | C=CCN1CCN(c2cc(OC)c(Nc3cc(N4OCC[C@@H]4c4cccc(C(F)(F)F)c4)ncn3)cc2NC(=O)C=C)CC1 [Compound 24] | < 50 | – | –
46 | C=CC(=O)Nc1cc(Nc2cc(N3OCC[C@@H]3c3ccc(F)c(C(F)(F)F)c3)ncn2)c(OC)cc1N1CCC(N(C)C)CC1 [Compound 39] | < 50 | – | –
47 | C=CC(=O)Nc1cc(Nc2cc(N3OCC[C@@H]3c3cc(F)cc(C(F)(F)F)c3)ncn2)c(OC)cc1N1CCN(C2CC2)[C@@H](C)C1 [Compound 6] | 50 to 500 | – | –
48 | C=CC(=O)Nc1cc(Nc2cc(N3OCC[C@@H]3c3cc(F)cc(C(F)(F)F)c3)ncn2)c(OC)cc1N1CCC(N2CCN(C3CC3)CC2)CC1 [Compound 1] | < 50 | 50 to 500 | –
49 | C=CC(=O)Nc1cc(Nc2cc(N3OCC[C@@H]3c3cccc(C(F)(F)F)c3)ncn2)c(OC)cc1N1CCN(C)[C@H](C)C1 [Compound 8] | < 50 | – | –
50 | C=CC(=O)Nc1cc(Nc2cc(N3OCC[C@@H]3c3cccc(C(F)(F)F)c3)ncn2)c(OC)cc1N1CCN(C2CC2)[C@H](C)C1 [Compound 9] | 50 to 500 | – | –
51 | C=CC(=O)Nc1cc(Nc2cc(N3OCC[C@@H]3c3cc(F)cc(C(F)(F)F)c3)ncn2)c(OC)cc1N1CCN(C)[C@@H](C)C1 [Compound 12] | 50 to 500 | – | –
